# Patent publication US9278958B2, “Anti-cancer compounds” (KATHOLIEKE UNIVERSITEIT LEUVEN, priority 2012, dated 2016)
# Read-outs that look alike come from different tables or passages of the source.
# Legend:
# C8166 cells = assay: Cytostatic assay, C8166; assay type: cell-based; conditions: Homo sapiens, Table 2
# Method: (§1) To each well of a 96-well microtiter plate were added 5-7.5×10^4 cells and a given amount of the test compound. The cells were allowed to proliferate for 48 h to 96 h (depending on the nature of the cell line) at 37° C. in a humidified CO2-controlled atmosphere. At the end of the incubation period, the cells were counted in a Coulter Counter (Coulter Electronics Ltd, Harpenden Herts, United Kingdom).
# PLC/PRF/5 hepatoma cells = assay: Cytostatic assay, PLC/PRF/5; assay type: cell-based; conditions: Homo sapiens, Table 4
# Method: as §1
# [1] = tested on: HEL embryonic lung fibroblast cells; assay: Cytostatic assay, HEL; assay type: cell-based; conditions: Homo sapiens, Table 3
# Method: as §1
# U87 glioma cells = assay: Cytostatic assay, U87; assay type: cell-based; conditions: Homo sapiens, U-87 MG; Table 3
# Method: as §1
# [2] = tested on: PC3 (rega) prostate cancer cells; assay: Cytostatic assay, PC3 (rega); assay type: cell-based; conditions: Table 4
# Method: as §1
# [3] = tested on: 293T embryonic kidney cells; assay: Cytostatic assay, 293T; assay type: cell-based; conditions: Homo sapiens, HEK-293T; Table 3
# Method: as §1
# BPH-1 (UZ) = assay: Cytostatic assay, BPH-1 (UZ); assay type: cell-based; conditions: Homo sapiens, Table 4
# Method: as §1
# L1210 cells = assay: Cytostatic assay, L1210; assay type: cell-based; conditions: Mus musculus, Table 2
# Method: as §1
# HUT-78 cells = assay: Cytostatic assay, HUT-78; assay type: cell-based; conditions: Homo sapiens, HuT78; Table 2
# Method: as §1
# [4] = tested on: PC-3 (UZ) prostate cancer cells; assay: Cytostatic assay, PC-3 (UZ); assay type: cell-based; conditions: Table 4
# Method: as §1
# [5] = tested on: Caki-1 kidney carcinoma cells; assay: Cytostatic assay, Caki-1; assay type: cell-based; conditions: Homo sapiens, Table 3
# Method: as §1
# [6] = tested on: THP-1, human monocytic cells; assay: Cytostatic assay, THP-1; assay type: cell-based; conditions: Table 2
# Method: as §1
# [7] = tested on: LNCaP (UZ) prostate cancer cells; assay: Cytostatic assay, LNCaP (UZ); assay type: cell-based; conditions: Homo sapiens, Table 4
# Method: as §1
# [8] = tested on: FM3A mammary carcinoma cells; assay: Cytostatic assay, FM3A; assay type: cell-based, murine; conditions: Mus musculus, Table 3
# Method: as §1
# Sup T1 cells = assay: Cytostatic assay, Sup T1; assay type: cell-based; conditions: Homo sapiens, Table 2, read-out: Cytostatic activity (μM) Sup T 1
# Method: as §1
# [9] = tested on: HT29 colorectal carcinoma cells; assay: Cytostatic assay, HT29; assay type: cell-based; conditions: Homo sapiens, HT-29; Table 3
# Method: as §1
# [10] = tested on: Raji, human B-lymphoma cells; assay: Cytostatic assay, Raji; assay type: cell-based; conditions: Table 2
# Method: as §1
# [11] = tested on: 22Rv1 (UZ) prostate cancer cells; assay: Cytostatic assay, 22Rv1 (UZ); assay type: cell-based; conditions: Homo sapiens, Table 4
# Method: as §1
# [12] = tested on: HL60, human leukemia cells; assay: Cytostatic assay, HL-60; assay type: cell-based; conditions: Table 2
# Method: as §1
# MT-2 cells = assay: Cytostatic assay, MT-2; assay type: cell-based; conditions: Homo sapiens, MT2; Table 2
# Method: as §1
# CEM cells = assay: Cytostatic assay, CEM; assay type: cell-based; conditions: Homo sapiens, CCRF-CEM
# Method: as §1
# [13] = tested on: HeLa cervix carcinoma cells; assay: Cytostatic assay, HeLa; assay type: cell-based, human; conditions: Homo sapiens; Table 3; read-out: Cytostatic activity (μM) Hela
# Method: as §1
# MT-4 cells = assay: Cytostatic assay, MT-4; assay type: cell-based; conditions: Homo sapiens, MT4; Table 2
# Method: as §1
# [14] = tested on: PNT1A (UZ) prostate cells; assay: Cytostatic assay, PNT1A (UZ); assay type: cell-based; conditions: Homo sapiens, Table 4
# Method: as §1
# Huh-7 hepatoma cells = assay: Cytostatic assay, Huh-7; assay type: cell-based; conditions: Homo sapiens, Table 4
# Method: as §1
# [15] = tested on: DU145 (UZ) prostate cancer cells; assay: Cytostatic assay, DU145 (UZ); assay type: cell-based; conditions: Homo sapiens, DU-145; Table 4
# Method: as §1
# [16] = tested on: OST TK- osteosarcoma cells; assay: Cytostatic assay, OST TK-; assay type: cell-based; conditions: Homo sapiens; Table 3
# Method: as §1
# [17] = tested on: MCF-7 mammary carcinoma cells; assay: Cytostatic assay, MCF-7; assay type: cell-based; conditions: Homo sapiens, MCF7; Table 3
# Method: as §1
# HepG2C3A hepatoma cells = assay: Cytostatic assay, HepG2C3A; assay type: cell-based; conditions: Homo sapiens, HepG2/C3A; Table 4
# Method: as §1
# [18] = tested on: Caki-2 kidney carcinoma cells; assay: Cytostatic assay, Caki-2; assay type: cell-based; conditions: Homo sapiens, Table 3
# Method: as §1
# [19] = tested on: BAEC aortic endothelial cells; assay: Cytostatic assay, BAEC; assay type: cell-based, bovine; conditions: Bos taurus, Table 3
# Method: as §1
# [20] = tested on: U937, human monocytic cells; assay: Cytostatic assay, U937; assay type: cell-based; conditions: U-937, Table 2
# Method: as §1
# Molt4/C8 cells = assay: Cytostatic assay, Molt4/C8; assay type: cell-based; conditions: Table 2
# Method: as §1
# [21] = Table 1a, read-out: IC50 μM (CEM)
# [22] = Table 2, read-out: Cytostatic activity (μM) CEM
Structure (SMILES),IC50 (C8166 cells) [µM],IC50 (PLC/PRF/5 hepatoma cells) [µM],IC50 [1] [µM],IC50 (U87 glioma cells) [µM],IC50 [2] [µM],IC50 [3] [µM],IC50 (BPH-1 (UZ)) [µM],IC50 (L1210 cells) [µM],IC50 (HUT-78 cells) [µM],IC50 [4] [µM],IC50 [5] [µM],IC50 [6] [µM],IC50 [7] [µM],IC50 [8] [µM],IC50 (Sup T1 cells) [µM],IC50 [9] [µM],IC50 [10] [µM],IC50 [11] [µM],IC50 [12] [µM],IC50 (MT-2 cells) [µM],further results
"CCOC(=O)c1cc(-c2ccccc2OC)sc1N [TR531, 2-Amino-5-(2-methoxy-phenyl)-thiophene-3-carboxylic acid ethyl ester]",133 ± 7.8,21 ± 0.71,25 ± 3.5,38 ± 8.5,25 ± 6.4,58 ± 7.1,39,41 ± 3,108 ± 5.7,28 ± 0.71,17 ± 3.5,25 ± 19,11 ± 5,49 ± 1,28 ± 12,43 ± 2.8,48 ± 13,20 ± 5.1,17 ± 5.7,27 ± 4.2,IC50 (CEM cells; [21]): 27 µM; IC50 (CEM cells; [22]): 27 ± 10 µM; IC50 [13]: 40 ± 9 µM; IC50 (MT-4 cells): 44 ± 5.7 µM; IC50 [14]: 45 ± 1.4 µM; IC50 (Huh-7 hepatoma cells): 43 ± 12 µM; IC50 [15]: 34 ± 4.2 µM; IC50 [16]: 18 ± 1.4 µM; IC50 [17]: 48 ± 11 µM; IC50 (HepG2C3A hepatoma cells): 10 ± 5.2 µM; IC50 [18]: 17 ± 3.5 µM; IC50 [19]: 31 ± 6.4 µM; IC50 [20]: 73 ± 3.5 µM; IC50 (Molt4/C8 cells): 31 ± 2.1 µM
"CCOC(=O)c1c(N)sc(CCc2ccc(OC)cc2)c1C(=O)OCC [TR547, 2-Amino-5-[2-(4-methoxy-phenyl)-ethyl]-thiophene-3,4-dicarboxylic acid diethyl ester]",122 ± 12,75 ± 35,44 ± 3.5,81 ± 27,38 ± 12,58 ± 2.8,65 ± 9.2,105 ± 48,120 ± 44,31 ± 5.7,87 ± 21,26 ± 2.8,19 ± 10,86 ± 5.6,73 ± 13,46 ± 3.5,58 ± 13,31 ± 4.2,46 ± 25,31 ± 29,IC50 (CEM cells; [21]): 72 µM; IC50 (CEM cells; [22]): 72 ± 6.4 µM; IC50 [13]: 41 ± 7.1 µM; IC50 (MT-4 cells): 38 ± 3.5 µM; IC50 [14]: 56 µM; IC50 (Huh-7 hepatoma cells): 51 ± 14 µM; IC50 [15]: 89 ± 16 µM; IC50 [16]: 71 ± 7.8 µM; IC50 [17]: 87 ± 21 µM; IC50 (HepG2C3A hepatoma cells): 48 ± 16 µM; IC50 [18]: 57 ± 24 µM; IC50 [19]: 82 ± 26 µM; IC50 [20]: 80 ± 3.5 µM; IC50 (Molt4/C8 cells): 54 ± 6 µM
"COC(=O)c1cc(-c2ccc(OC)cc2)sc1N [TR572, 2-Amino-5-(4-methoxy-phenyl)-thiophene-3-carboxylic acid methyl ester]",179 ± 18,42 ± 2.1,34 ± 20,71 ± 3.5,5.5 ± 4,> 100,58 ± 6.4,60 ± 12,26 ± 17,4.3 ± 1.7,4.4 ± 1.9,21 ± 0.7,1.1 ± 0.84,97 ± 32,55 ± 30,42 ± 3.5,61 ± 18,69 ± 44,11 ± 1.4,12 ± 1.4,IC50 (CEM cells; [21]): 74 µM; IC50 (CEM cells; [22]): 74 ± 3.5 µM; IC50 [13]: 63 ± 19 µM; IC50 (MT-4 cells): 40 ± 12 µM; IC50 [14]: 53 ± 2.1 µM; IC50 (Huh-7 hepatoma cells): 42 ± 7.8 µM; IC50 [15]: 18 ± 9.2 µM; IC50 [16]: 25 ± 2.1 µM; IC50 [17]: 119 ± 52 µM; IC50 (HepG2C3A hepatoma cells): 28 ± 8.5 µM; IC50 [18]: 9 ± 1.4 µM; IC50 [19]: 47 ± 3.5 µM; IC50 [20]: 63 ± 7.1 µM; IC50 (Molt4/C8 cells): 44 ± 9 µM
"COC(=O)c1cc(-c2ccccc2OC)sc1N [TR581, 2-Amino-5-(2-methoxy-phenyl)-thiophene-3-carboxylic acid methyl ester]",149 ± 14,36 ± 4.2,24 ± 2.1,42 ± 5.7,26 ± 8.5,72 ± 4.9,50 ± 5.7,204 ± 85,152 ± 44,28 ± 4.9,39 ± 2.1,69 ± 13,9.7 ± 5.1,275 ± 206,45 ± 31,43 ± 1.4,59 ± 11,42 ± 7.6,16 ± 3.5,103 ± 52,IC50 (CEM cells; [21]): 55 µM; IC50 (CEM cells; [22]): 55 µM; IC50 [13]: 41 ± 4.9 µM; IC50 (MT-4 cells): 36 ± 15 µM; IC50 [14]: 58 ± 13 µM; IC50 (Huh-7 hepatoma cells): 59 ± 17 µM; IC50 [15]: 35 ± 6.4 µM; IC50 [16]: 45 ± 4.2 µM; IC50 [17]: 29 ± 20 µM; IC50 (HepG2C3A hepatoma cells): 38 ± 27 µM; IC50 [18]: 28 ± 18 µM; IC50 [19]: 38 ± 2.1 µM; IC50 [20]: 82 ± 7.1 µM; IC50 (Molt4/C8 cells): 39 ± 8 µM
"COc1ccc(CCc2cc(C#N)c(N)s2)cc1 [TR586, 2-Amino-5-[2-(4-methoxy-phenyl)-ethyl]-thiophene-3-carbonitrile]",57 ± 56,37 ± 0.71,> 100,> 100,1.8 ± 2,28 ± 3.5,59 ± 18,14 ± 4,17 ± 8.1,4.2 ± 0.14,1.9 ± 0.42,4.3 ± 0.6,0.83 ± 0.35,34 ± 23,79 ± 42,34 ± 6.4,36 ± 21,17 ± 8.1,1.9 ± 0.42,6.8 ± 3.7,IC50 (CEM cells; [21]): 16 µM; IC50 (CEM cells; [22]): 16 ± 17 µM; IC50 [13]: 21 ± 9.9 µM; IC50 (MT-4 cells): 74 ± 37 µM; IC50 [14]: 38 ± 14 µM; IC50 (Huh-7 hepatoma cells): > 100 µM; IC50 [15]: 8.3 ± 2.5 µM; IC50 [16]: 27 ± 18 µM; IC50 [17]: 114 ± 62 µM; IC50 (HepG2C3A hepatoma cells): 46 ± 13 µM; IC50 [18]: 28 ± 27 µM; IC50 [19]: 38 ± 2.1 µM; IC50 [20]: 17 ± 2.8 µM; IC50 (Molt4/C8 cells): 1.4 ± 0.8 µM
